Measured values: US20240166627A1, “Terpyridinedione compound or salt thereof, and preparation method and application thereof” (SHENZHEN SALUBRIS PHARMACEUTICALS CO., LTD., priority 2021, published 2024)

Legend:
[1] = tested on: production of TNFα in U937; assay: Releasing TNFα from U937 induced by LPS; type: cell-based; settings: Homo sapiens, U-937; PMA-differentiated U937, LPS 100 ng/ml, 4 h; read-out: IC50 value that the compound inhibits the production of TNFα
Procedure, shortened: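 U937 cells differentiated with PMA (20 ng/ml, 48 h) were pretreated with compound (0.1% DMSO final) for 30 min at 37 °C, then stimulated with LPS (100 ng/ml) for 4 h. Supernatant TNFα was quantified by ELISA against a kit standard curve, and IC50 came from nonlinear fitting.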

[2] = biological target: p38α/MK2 complex (Homo sapiens, UniProt P49137+Q16539); assay: p38α/MK2 complex kinase screening experiment (IMAP FP); type: biochemical; settings: p38α 0.2 nM, MK2 unactive 1 nM, HSP27 substrate 1 μM, ATP 10 μM; read-out: IC50 value that the compound inhibits p38α/MK2 complex
Protocol: A certain amount of a drug is weighted and prepared into a 10 mM of mother solution by using DMSO; the mother solution is diluted to 100 μM (100× working solution) in two steps; and then, the solution is diluted 3-fold to 33.33 μM, 11.11 μM, 3.70 μM, 1.23 μM, 0.41 μM, 0.14 μM, 0.046 μM, 0.015 μM, and 0.005 μM, successively. DMSO control is also arranged.
Then, a series of diluted DMSO drugs are diluted 25 folds with 1×IMAP Reaction Buffer as a 4× drug working solution.
10 gradient concentrations and 2 duplicated wells are set to each group of compounds; and a DMSO control group and a negative control group (DMSO, no ATP) are additionally set.
• c), after 1 h of incubation at room temperature, 1× Progressive Binding Solution is added to end the enzymatic reaction; after 30 min of incubation, a BMGPHERASTER FSX multifunctional microplate reader is used to detect a Fluorescence Polarization (FP) signal [FP(Ex485/Em520/Em520 nm)].

[3] = biological target: p38β (Homo sapiens, UniProt Q15759); assay: p38β kinase screening experiment (ADP-Glo); type: biochemical
Protocol: A certain amount of the compound is weighed, prepared into a 10/50 mM mother solution with DMSO, diluted 3 folds with DMSO, and diluted to 10 concentration points as a compound working solution.
50 nL of the diluted compound working solution is transferred to each well of a reaction plate (784075, Greiner) with Echo 655, then 2.5 μL (2 ng/μL) of a p38β kinase solution is added; after 10 minutes at room temperature, 2.5 μL of a mixed solution of a kinase substrate (0.4 mg/mL) and ATP (100 μM) is added, for reaction for 60 min at room temperature; and 4 μL of an ADP Glo reagent is added, for incubation for 40 min at room temperature. 8 μL of a kinase detection reagent is added, for incubation for 40 min at room temperature; and finally a light-emitting signal is read on Envision 2104.

Chain of p38β (Q15759 whole entry): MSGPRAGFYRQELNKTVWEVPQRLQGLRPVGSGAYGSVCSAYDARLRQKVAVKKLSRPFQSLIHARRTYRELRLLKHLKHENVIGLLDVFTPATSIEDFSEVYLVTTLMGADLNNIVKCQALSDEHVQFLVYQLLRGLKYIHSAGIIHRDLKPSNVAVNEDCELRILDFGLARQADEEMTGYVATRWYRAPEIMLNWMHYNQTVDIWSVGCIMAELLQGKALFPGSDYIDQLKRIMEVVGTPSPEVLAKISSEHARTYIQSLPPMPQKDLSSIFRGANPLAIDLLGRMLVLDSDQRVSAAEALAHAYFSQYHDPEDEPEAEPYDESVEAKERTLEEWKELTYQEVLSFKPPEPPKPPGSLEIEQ
Chain of p38α/MK2 complex (Q16539 whole entry): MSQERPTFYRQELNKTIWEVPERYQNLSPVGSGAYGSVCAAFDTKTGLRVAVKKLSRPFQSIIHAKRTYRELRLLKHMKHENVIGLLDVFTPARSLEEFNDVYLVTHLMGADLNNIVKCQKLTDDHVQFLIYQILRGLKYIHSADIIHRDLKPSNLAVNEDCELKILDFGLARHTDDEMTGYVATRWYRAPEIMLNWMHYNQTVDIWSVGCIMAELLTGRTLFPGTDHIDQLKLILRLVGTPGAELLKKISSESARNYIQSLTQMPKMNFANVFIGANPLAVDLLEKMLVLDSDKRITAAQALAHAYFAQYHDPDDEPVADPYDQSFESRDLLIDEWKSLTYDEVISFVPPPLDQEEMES
Chain of p38α/MK2 complex (P49137 whole entry): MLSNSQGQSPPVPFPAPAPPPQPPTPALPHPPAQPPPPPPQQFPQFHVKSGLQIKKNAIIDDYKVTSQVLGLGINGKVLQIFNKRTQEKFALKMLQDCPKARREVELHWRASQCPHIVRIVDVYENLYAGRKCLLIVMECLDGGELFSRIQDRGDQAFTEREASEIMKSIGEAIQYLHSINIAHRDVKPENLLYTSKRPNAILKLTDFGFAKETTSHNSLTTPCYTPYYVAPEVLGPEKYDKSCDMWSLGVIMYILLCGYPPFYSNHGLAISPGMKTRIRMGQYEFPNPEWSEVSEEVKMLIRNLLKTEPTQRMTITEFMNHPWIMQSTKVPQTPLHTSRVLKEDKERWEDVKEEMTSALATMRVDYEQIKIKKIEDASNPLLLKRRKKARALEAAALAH

## Cc1cnc(-n2cccc(C(C)(C)O)c2=O)cc1-n1c(C)cc(OCc2ncc(F)cc2F)c(Cl)c1=O [Comparative example 1]
[1]
  IC50: 1.63 nM
[2]
  IC50: 2.6 nM
[3]; ATP 100 μM in the substrate/ATP mix, 60 min, read-out: IC50 value that the compound inhibits p38β
  IC50: 4100 nM
[3]; ratio of p38β IC50 to p38α/MK2 complex IC50 of Embodiment 50
  Activity multiple relative to p38β/(p38α/MK2 complex): 1575
